Consider three molecules from publication PMC3441724, “Mechanistic Insights into Validoxylamine A 7'-Phosphate Synthesis by VldE Using the Structure of the Entire Product Complex” (PLoS ONE, 2012).

The target in data set [1] is T1, VldE (Streptomyces hygroscopicus, UniProt Q15JG1).
T1 construct: (His)6-tagged full-length protein, 497 residues per monomer, expressed in E. coli BL21(DE3) pLysS; homodimer; residues 1, 2 and 482-497 not modelled
T1 sequence (Q15JG1 1-497): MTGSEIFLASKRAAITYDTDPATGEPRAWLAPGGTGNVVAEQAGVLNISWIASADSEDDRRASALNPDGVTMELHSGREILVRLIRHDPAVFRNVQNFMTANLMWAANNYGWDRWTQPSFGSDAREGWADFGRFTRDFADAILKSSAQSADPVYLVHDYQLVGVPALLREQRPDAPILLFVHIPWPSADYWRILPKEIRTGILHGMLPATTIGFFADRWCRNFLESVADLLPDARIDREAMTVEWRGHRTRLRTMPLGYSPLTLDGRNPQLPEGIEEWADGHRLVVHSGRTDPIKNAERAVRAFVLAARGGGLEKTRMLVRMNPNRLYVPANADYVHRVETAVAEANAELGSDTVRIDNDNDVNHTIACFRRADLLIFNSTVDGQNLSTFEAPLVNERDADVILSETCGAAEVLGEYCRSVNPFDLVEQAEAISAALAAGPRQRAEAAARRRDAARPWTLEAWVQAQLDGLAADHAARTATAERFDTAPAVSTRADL
Kind of data set: X-ray crystal structure. Type of data set: binding. As to conditions: ternary complex with GDP, pH 8.0, open conformation.

Data set [2] deals with the molecule itself. Kind of data set: crystal structure; sitting drop vapor diffusion, 293 K, Tris-HCl pH 8.0 with polyethylene glycol 3,350; two monomers modeled within the asymmetric unit (apo, GDP, GDP+VDO), six monomers in VldE•GDP•TRE.

In the case of `OC[C@H]1O[C@H](O[C@H]2O[C@H](CO)[C@@H](O)[C@H](O)[C@H]2O)[C@H](O)[C@@H](O)[C@@H]1O` [TRE, trehalose], the X-ray crystal structure result in data set [1] (2.81 Å, 3% trehalose, 1 mM GDP, 20 mM MgCl2, cyclitol binding sites, bound in two of six monomers) was “structure of VldE in complex with both GDP and trehalose (VldE•GDP•TRE)”.
Take `O=P(O)(O)OC[C@H]1C[C@H](N[C@H]2C=C(CO)[C@@H](O)[C@H](O)[C@H]2O)[C@H](O)[C@@H](O)[C@@H]1O` [VDO, validoxylamine A 7′-phosphate]: the X-ray crystal structure result in data set [1] (2.11 Å, crystal soaked with 5 mM GDP and 10 mM VDO, cyclitol (donor and acceptor) sites) is “The first crystallographic structure of VldE in complex with the entirety of its products”.

B1: VldE from S. hygroscopicus subsp. limoneus (enzyme)
chain: MTGSEIFLASKRAAITYDTDPATGEPRAWLAPGGTGNVVAEQAGVLNISWIASADSEDDRRASALNPDGVTMELHSGREILVRLIRHDPAVFRNVQNFMTANLMWAANNYGWDRWTQPSFGSDAREGWADFGRFTRDFADAILKSSAQSADPVYLVHDYQLVGVPALLREQRPDAPILLFVHIPWPSADYWRILPKEIRTGILHGMLPATTIGFFADRWCRNFLESVADLLPDARIDREAMTVEWRGHRTRLRTMPLGYSPLTLDGRNPQLPEGIEEWADGHRLVVHSGRTDPIKNAERAVRAFVLAARGGGLEKTRMLVRMNPNRLYVPANADYVHRVETAVAEANAELGSDTVRIDNDNDVNHTIACFRRADLLIFNSTVDGQNLSTFEAPLVNERDADVILSETCGAAEVLGEYCRSVNPFDLVEQAEAISAALAAGPRQRAEAAARRRDAARPWTLEAWVQAQLDGLAADHAARTATAERFDTAPAVSTRADL
notes: VldE, pseudo-glycosyltransferase of Streptomyces hygroscopicus subsp. limoneus; 994 possible residues for two monomers (497 each); the apo model lacks residues 1, 2 and 482-497; also called pseudo-glycosyltransferase VldE; (His)6-tagged VldE
Turning to B1, in data set [2], the binding result was “binds”.
